Assay results taken from patent US5912351A, “Anhydrous 1,4-Dihydropyridines and salts thereof” (Recordati, S.A. Chemical and Pharmaceutical Company, priority 1995, dated 1999).

Experiments:
[1] = tested on: mouse monocyte-macrophage cells (ATCC TIB 67 J774A.1); assay: Cell-mediated oxidation of LDL (MDA, thiobarbituric acid assay), J774A.1 cells; type: cell-based; settings: 30 μM, after 10 hours incubation, FIG. 7
Protocol: The antioxidant capacity of the compounds of the invention, on cell-mediated oxidation, was evaluated by incubating LDL and mouse monocyte-macrophage cells (ATCC TIB 67 J774A.1) with CuSO4 solution in the presence of […], lercanidipine or one of its enantiomers at several concentrations. The inhibition of formation of aldehydic breakdown products, i.e., secondary metabolites of lipid peroxidation, malonic dialdehyde (MDA), was assessed by detection of dialdehyde formation using the thiobarbituric acid assay (A. N. Hanna et al., Biochem. Pharmacol. 45: 753 (1993)).
The antioxidant capacity was evaluated by incubating ethylene-diaminetetraacetic acid free-LDL under sterile conditions with 5 μM Cu++ (100 μg Apo B/ml) in the presence of J774A.1 cells. Oxidation was stopped after 22 hours incubation by addition of butylated hydroxytoluene to the medium (final concentration 40 μM) dissolved in ethanol. […] Malonic dialdehyde equivalents were calculated using 1,1,3,3-tetramethoxypropane as the standard.
In experiments 9A and 9B, the cell-mediated oxidation effects of lercanidipine were investigated after incubation for 22 hours. […] Samples were withdrawn from the incubation medium and the oxidation product, MDA, measured as described above.

[2] = tested on: EAhy-926; assay: Cell-mediated oxidation of LDL (MDA), EAhy-926 cells; type: cell-based; settings: 10 to 100 μM, 22 hours, FIG. 6
Protocol: The antioxidant capacity was evaluated by incubating ethylene-diaminetetraacetic acid free-LDL under sterile conditions with 5 μM Cu++ (100 μg Apo B/ml) in the presence of J774A.1 cells. Oxidation was stopped after 22 hours incubation by addition of butylated hydroxytoluene to the medium (final concentration 40 μM) dissolved in ethanol. To the incubated sample (0.250 ml), was added trichloroacetic acid (0.750 ml, 0.20% w/v) followed by of thiobarbituric acid (0.750 ml, 0.67% w/v). The samples were heated at 100° C. for 20 min, followed by cooling and centrifugation. Malonic dialdehyde equivalents were calculated using 1,1,3,3-tetramethoxypropane as the standard.
Following the procedure in Example 9A, the effects of lercanidipine on cell-mediated oxidation were studied with a different cell line which shares many of the properties of endothelial cells (EAhy-926). (The cells were provided by: Prof. A. Catapano, Pharmacology Dept., Universita Statale--Milano.) (These or other endothelial cells can be obtained as described by C-J. S. Edgall et al., Proc. Nat. AcAd. Sci., 80: 3734-3737, (1983); and Gimbrone, M., Prog. Hemostasis Thromb., 3: 1-28, (1976)). The cells were treated with lercanidipine at a concentration of from about 10 to about 100 μM.

[3] = tested on: LDL, isolated from human plasma; assay: Chemical (Cu++) oxidation of LDL, conjugated diene formation at 234 nm; type: biochemical; design: Lag time of LDL oxidation: unit not given here
Protocol: The ability of Lercanidipine to function as an antioxidant was evaluated by incubating LDL, isolated from human plasma, for 22 hours with an oxidizing agent (20 μM Cu++) in the presence of different concentrations of the test compounds (0.01 μM-50 μM). The LDL oxidation was followed by monitoring conjugated diene formation with a ultraviolet (UV) spectrometer at 234 nm.
The experimental conditions were as follows. LDL (d=1.019-1.063) were isolated from human pooled plasma by sequential ultracentrifugation at 4° C. and 40,000 rpm in a 50 Ti rotor, using a L5-50 ultracentrifuge (Beckman, Palo Alto, Calif.). The LDL were then dialyzed against 0.15 M NaCl containing 0.01% ethylenediaminetetraacetic acid pH 7.4, sterilized by filtration through a […] millipore filter and stored at 4° C. under nitrogen in the dark until use (up to 3 weeks). Before use, LDL were dialyzed against ethylenediaminetetraacetic acid free phosphate buffered saline, pH 7.4, on Sephadex G-25 columns (PD-10, Pharmacia Fine Chemicals, Uppsala, Sweden). Then the LDL were filtered through a sterile 0.22 μM filter. In a phosphate buffered saline (50 μg lipoprotein protein/ml), the LDL were oxidized by incubation at 25° C. with 20 μM CuSO4 for 3 hours. The lercanidipine solution was prepared as a 10^-2 M stock solution in methanol or ethanol and added as a methanol or ethanol solution (maximum 1% v/v) prior to addition of the copper solution. The effect of lercanidipine on the oxidation of LDL was determined by continuous monitoring of the formation of conjugated dienes by recording the increase in the absorbance at 234 nm at 5 min intervals during a three hour period, against a phosphate buffered saline blank, using a UV spectrophotometer (Beckman DU 640) equipped with a continuous reading and an automatic 6-cell changer. The time prior to the onset of oxidation (lag time) was calculated as the intercept between the line of the maximum slope of the propagation phase and the x-axis.

[4] = tested on: rat myocytes; assay: Arterial myocyte migration, micro chemotaxis chamber with fibrinogen; type: cell-based; settings: 5 hours, fibrinogen 600 μg/ml, FIG. 2
Protocol: Migration of rat myocytes was examined using a 48-well micro chemotaxis chamber (Neuro-Probe, USA). Freshly trypsinized myocytes prepared according to the procedure in Example 4A were suspended in a medium supplemented with 5% fetal calf serum (assay medium). The lower wells, containing 27 μl of the assay medium that included fibrinogen (600 μg/ml) as chemotactic agent, were covered with a polyvinylpyrrolidone-free polycarbonate filter ([…]). Fifty μl of the cell suspension (1×10^6 cells/ml) were placed in the upper compartment with the tested compounds. Incubation was carried out for 5 hours at 37° C. in an atmosphere of 95% air and 5% CO2.
After incubation the filter was removed from the chamber and non-migrated cells were scraped from the upper surface, and the filters washed with phosphate buffered saline three times. The filters were stained with Diff-Quik (Merz-Dade AG, Switzerland). The number of myocytes per 100×high power field that had migrated to the lower surface of the filters was determined microscopically. Six high power fields were counted per sample and the results were averaged.

| SMILES | inhibition of lipid oxidation (MDA) over time [1] | LDL oxidation (nanomoles of MDA produced) [2] | Lag time of LDL oxidation ([3]; 0.5 μM, 20 μM Cu++) | Lag time of LDL oxidation ([3]; 1.0 μM, 20 μM Cu++) | Lag time of LDL oxidation ([3]; 2.5 μM, 20 μM Cu++, P < 0.05) | Lag time of LDL oxidation ([3]; 5.0 μM, 20 μM Cu++, P < 0.01) | increase of the lag time for LDL oxidation ([3]; 10 μM) | Lag time of LDL oxidation ([3]; 10.0 μM, 20 μM Cu++, P < 0.01) | concentrations significantly suppressing the onset of LDL oxidation ([3]; 20 μM Cu++) | potency relative to lacidipine (LDL oxidation) ([3]; assays herein) | inhibition of myocytes migration [4] |
| --- | --- | --- | --- | --- | --- | --- | --- | --- | --- | --- | --- |
| COC(=O)C1=C(C)NC(C)=C(C(=O)OC(C)(C)CN(C)CCC(c2ccccc2)c2ccccc2)C1c1cccc([N+](=O)[O-])c1 (racemic) [LE, methyl 1,1,N-trimethyl-N-(3,3-diphenylpropyl)-2-aminoethyl 1,4-dihydro-2,6-dimethyl-4-(3-nitrophenyl)-pyridine-3,5-dicarboxylate] | very high inhibition of lipid oxidation | reduced the oxidation of LDL | 45.2 ± 3.7 | 49.8 ± 4.7 | 53.6 ± 3.3 | 73.2 ± 4.8 | more than 2 times | 112.7 ± 5.2 | greater than or equal to 2.5 μM | one order of magnitude higher |  |
| COC(=O)C1=C(C)NC(C)=C(C(=O)OC(C)(C)CN(C)CCC(c2ccccc2)c2ccccc2)[C@@H]1c1cccc([N+](=O)[O-])c1 [(R)-LE, (R)-(-)METHYL 1,1-N-TRIMETHYL-N-(3,3-DIPHENYLPROPYL)-2-AMINOETHYL 1,4-DIHYDRO-2,6-DIMETHYL-4-(3-NITROPHENYL)PYRIDINE-3,5-DICARBOXYLATE] |  |  |  |  |  |  |  |  |  |  | most pronounced effect |
